The target in experiment [1] is T1, L-SMase (Homo sapiens, UniProt P17405).
T1 construct: endogenous in cells; host or cells: HUVEC, sonicated cell homogenate
T1 sequence (P17405 47-631): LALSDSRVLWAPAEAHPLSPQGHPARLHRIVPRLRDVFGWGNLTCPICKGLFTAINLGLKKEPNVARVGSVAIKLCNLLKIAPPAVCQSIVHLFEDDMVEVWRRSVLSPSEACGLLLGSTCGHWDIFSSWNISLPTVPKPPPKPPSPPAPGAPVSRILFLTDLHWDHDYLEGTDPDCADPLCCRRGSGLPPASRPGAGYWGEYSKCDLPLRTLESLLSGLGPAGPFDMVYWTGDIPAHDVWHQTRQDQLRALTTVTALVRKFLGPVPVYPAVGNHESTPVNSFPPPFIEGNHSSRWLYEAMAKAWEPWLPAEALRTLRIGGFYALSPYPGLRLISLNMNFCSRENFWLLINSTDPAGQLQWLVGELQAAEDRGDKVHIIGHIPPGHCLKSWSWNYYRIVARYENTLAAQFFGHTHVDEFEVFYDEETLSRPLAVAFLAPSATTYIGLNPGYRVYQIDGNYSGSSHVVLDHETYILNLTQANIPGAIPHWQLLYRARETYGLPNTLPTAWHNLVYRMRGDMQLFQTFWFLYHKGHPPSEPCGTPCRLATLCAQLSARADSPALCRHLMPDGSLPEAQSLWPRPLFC
Description: SMase assay of HUVEC cell homogenate, zinc-dependency. The experiment is classed as biochemical. Here is the method: Smase Assay—As previously described (15), the standard 200-μl assay mixture consisted of up to 40 μl of sample (conditioned media or homogenized cells; see above, and a volume of assay buffer (0.1 M sodium acetate, pH 5.0) to bring the volume to 160 μl. The reaction was initiated by the addition of 40 μl substrate (50 pmol [^3H]sphingomyelin) in 0.25 M sucrose containing 3% Triton X-100 (final concentration of Triton X-100 in the 200-μl assay mix=0.6%). When added, the final concentrations of EDTA and Zn^2+ were 5 mM and 0.1 mM, respectively, unless indicated otherwise. The assay mixtures were incubated at 37° C. for no longer than 3 h and then extracted by the method of Bligh and Dyer (37); the lower, organic phase was harvested, evaporated under N2, and fractionated by TLC using chloroform:methanol (95:5). The ceramide spots were scraped and directly counted to quantify [^3H]ceramide. Typically, our assay reactions contained approximately 20 μg of cellular homogenate protein and a volume of conditioned media derived from a quantity of cells equivalent to approximately 50 μg of cellular protein.

For experiment [2], the system named is L-SMase. Description: SMase assay of CHO cell homogenate and 16,000-x-g pellet. The format is biochemical, Chinese hamster. The procedure:
FIGS. 18A-B. Zn^2+-dependency of SMase in a sonicated cell homogenate and 16,000-x-g pellet. CHO cells were grown to 90% confluency in Ham's F-12 media containing 10% HI-FBS and PSG and then washed 3 times with PBS before incubation in serum-free medium containing 0.2% BSA for 24 h. The cells were then washed 3 times in 0.25 M sucrose and the total cell homogenate and the 16,000-x-g cellular subfraction were isolated as described in “Experimental Procedures”. Twelve micrograms of the cell homogenate (Homogenate) and 2.5 μg of the 16,000-x-g pellet (16K-xg Pellet) were assayed for SMase activity in the presence of either 5 mM EDTA (hatched bars) or 0.1 mM ZnCl2 (solid bars) for 1 h at 37° C. at pH 5.0. […]
SMase Assay—As previously described (Schissel et al., 1996), the standard 200-μl assay mixture consisted of up to 40 μl of sample (conditioned media or homogenized cells; see above) and a volume of assay buffer (0.1 M sodium acetate, pH 5.0) to bring the volume to 160 μl. […] The ceramide spots were scraped and directly counted to quantify [^3H]ceramide. Typically, the assay reactions contained approximately 20 μg of cellular homogenate protein and a volume of conditioned media derived from a quantity of cells equivalent to approximately 50 μg of cellular protein.

A further experiment deals with ASM (SMase) mRNA. Briefly: Northern blot of SMase mRNA in HUVECs. The experiment is classed as cell-based, human. The following applies: IL-1β 5 ng/ml, 18 h. The procedure: FIG. 24. Northern blot analysis of HUVECs incubated in the absence or presence of IL-1β. HUVECs were incubated for 18 h in DMEM, 0.2% BSA alone (Con) or containing human recombinant interleukin-1β (5 ng/ml) (IL1β).
Northern Blot of SMase mRNA—Total cellular RNA was isolated from HUVECs using RNAzol B (Tel-Test. Inc., Friendswood, Tex.). Approximately 10 μg of RNA was separated on a 1% agarose gel and blotted onto a nylon membrane. The membrane was hybridized in a QuikHyb hybridization solution (Stratagene) with a 1.6-kB EcoRI-XhoI fragment of human ASM cDNA (41) that was labeled with ^32P by the random-priming Procedure (GIBCO-BRL®). The amount of RNA loaded for each condition was normalized using a probe to glyceraldehyde-3-phosphate dehydrogenase. The relative intensities of the mRNA bands were determined by densitometric scanning of the autoradiograms using a Molecular Dynamics Computing Densitometer (model 300A) with Image-Quant software.

Consider two compounds from patent publication US6613322B2, “Method for treating a subject suffering from conditions associated with an extracellular zinc sphingomyelinase” (The Trustees of Columbia University in the City of New York, priority 1997, dated 2003).

For `[Cl-].[Cl-].[Zn+2]` [Zn^2+, ZnCl2], the “increase of enzymatic activity of L-SMase by Zn2+” value on L-SMase [1] (L-SMase from IL-1β-treated HUVECs) came to 1.13±0.08 fold; at L-SMase [1] (L-SMase from untreated HUVECs), 1.09±0.04 fold. Moreover, the “effect of exogenous Zn2+ on SMase activity” value was “substantially stimulated” in the experiment on L-SMase [2] (16,000-x-g pellet (intact lysosomes), sonicated) and “no effect” with L-SMase [2] (sonicated cell homogenate).
For the compound IL-1β: human recombinant interleukin-1β, the “increase in SMase mRNA normalized for GAPDH mRNA” value in the experiment with ASM (SMase) mRNA was about 40%.
